{"source": "patent US9802962B2", "about": "“Tricyclic pyrone compounds reduce amyloid beta aggregates” (priority 2013, dated 2017)", "key": {"ACAT": {"system": "ACAT", "assay": "ACAT inhibition", "type": "biochemical", "settings": "read-out: half maximal inhibitory concentration (IC50), ACAT", "source_text": "(§1) It has been reported that an induction of cholesterol efflux resulting in a reduction of Aβ formation/deposition in vitro and in vivo (Kim, et al., J Alzheimers Dis, 2009, 16:121-131). For additional Detail, see the attached manuscript entitled, “Inhibition of Acyl-CoA: Cholesterol Acyltransferase (ACAT), Overexpression of Cholesterol Transporter Gene, and Protection of Amyloid β (Aβ) Oligomers-Induced Neuronal Cell Death by Tricylic Pyrone Molecules” which is incorporated herein."}, "[1]": {"system": "ABCA1 cholesterol transporter gene", "assay": "Increase of ABCA1 cholesterol transporter gene", "type": "cell-based", "source_text": "as §1"}, "[2]": {"assay": "Plasma and organ distribution after ip administration in mice", "type": "in vivo", "settings": "25 mg/kg ip", "description": "FIG. 4. Concentrations or content of TP70 in the plasma and 7 key organs following ip administration of TP70 (25 mg/kg) in mice (n=3 each data point).\nIn addition to determination of drug concentrations in plasma and the brain, drug content in other six key organs, the heart, liver, lungs, intestine, and kidneys of mice (male C57BL/6, 3 months, Harlan, n=3 per timepoint) were also assessed in a separate pharmacokinetic (PK) study of TP70 (25 mg/kg, ip,) using HPLC and mass spectrometry."}, "[3]": {"assay": "Plasma PK and bioavailability, iv versus po, in mice", "type": "in vivo", "description": "FIG. 5. Plasma concentrations of TP70 following iv or po administration (25 mg/Kg; iv, n=3 in each timepoint; or po, n=3 in each timepoint). Plasma concentrations were plotted against time post-dosing.\nSince the drug will ultimately be administered orally, the bioavailability (F) of TP70 was determined in mice (male C57BL/6, 4 to 6 months old, n=3/group). Each mouse was treated with TP 70 (25 mg/kg). The drug was initially dissolved in pure dimethyl sulfoxide (DMSO) and then diluted with 0.5% hydroxypropylcellulose (HPC) in distilled water in a final solution containing 2% DMSO. At different time points about 50 μl plasma was sampled via tail cut for blood collection with a tube treated with ethylenediaminetetraacetic acid (EDTA). The compound was measured using HPLC/mass spectrometer. The maximal plasma concentration following iv administration is 16.6±6.1 μg/ml (equivalent to 42 μM) and po is 6.9±0.17 μg/ml (equivalent to 17 μM)."}, "wildtype mice (C57BL/6)": {"system": "wildtype mice (C57BL/6)", "assay": "Rotarod performance in wildtype mice", "type": "in vivo", "settings": "50 mg/kg ip, one hour after dosing, Day 5", "description": "FIG. 9. Effects of TP70 on mouse rotarod performance. The mice were trained three times every day for 4 days to reach its maximal performance using SmartCage Rotarod device (with a setting of a constant speed at 15 […] per minute).\nTo further assess side effects on motor activity, and particularly balance and muscle coordination, rotarod performance was conducted by the wildtype mice (C57BL/6 female, 2 months old, n=7). Vehicle injection (i.p) was given after the Day 4 training to assess any effects of vehicle or injection per se. On Day 5, one hour after TP70 (50 mg/kg, ip) the mice were subject to the rotarod test."}, "[4]": {"assay": "Cerep in vitro profiling (protein binding, absorption, metabolic stability, off target activity)", "type": "in vitro ADME", "settings": "Caco-2, P-gp, human liver microsomes, CYPs, HepG2 viability, hERG"}}, "data": [{"smiles": "Cc1cc2c(c(=O)o1)C=C1CCC(C(C)CNCc3ccc(O)cc3)CC1O2", "note": "(stereo not drawn) [TP70]", "values": [{"measurement": "IC50", "setting": "ACAT", "result": 0.3, "unit": "µM"}, {"measurement": "EC50", "setting": "[1]", "result": 1.1, "unit": "µM"}, {"measurement": "distribution in the heart", "setting": "[2]", "result": "lowest distribution in the heart"}, {"measurement": "distribution in the brain", "setting": "[2]; mice", "result": "higher distribution in the brain than in the plasma and all other organs examined, except for kidneys"}, {"measurement": "disposition in the kidneys", "setting": "[2]; two hours post dosing", "result": "highest disposition in the kidneys"}, {"measurement": "distribution in intestines", "setting": "[2]; two hours post dosing", "result": "low distribution in intestines"}, {"measurement": "Average concentration of TP70 in plasma", "setting": "[3]; iv route, 5 min", "result": "16.6 ± 6.1", "unit": "mg/L"}, {"measurement": "Average concentration of TP70 in plasma", "setting": "[3]; iv route, 15 min", "result": "10.2 ± 4", "unit": "mg/L"}, {"measurement": "Average concentration of TP70 in plasma", "setting": "[3]; iv route, 30 min", "result": "8.2 ± 3.5", "unit": "mg/L"}, {"measurement": "Average concentration of TP70 in plasma", "setting": "[3]; iv route, 60 min", "result": "3.7 ± 0.8", "unit": "mg/L"}, {"measurement": "Average concentration of TP70 in plasma", "setting": "[3]; iv route, 120 min", "result": "2.02 ± 0.6", "unit": "mg/L"}, {"measurement": "Average concentration of TP70 in plasma", "setting": "[3]; iv route, 240 min", "result": "1.8 ± 0.5", "unit": "mg/L"}, {"measurement": "Average concentration of TP70 in plasma", "setting": "[3]; iv route, 360 min", "result": "0.9 ± 0.3", "unit": "mg/L"}, {"measurement": "F", "setting": "[3]; iv route, fraction", "result": 1}, {"measurement": "Area under the curve (AUC)", "setting": "[3]; iv, 25 mg/kg", "result": 989}, {"measurement": "maximal plasma concentration", "setting": "[3]; iv, 25 mg/kg", "result": "16.6 ± 6.1", "unit": "µg/mL"}, {"measurement": "maximal plasma concentration (equivalent)", "setting": "[3]; iv, 25 mg/kg", "result": 42, "unit": "µM"}, {"measurement": "t1/2", "setting": "[3]; iv, 25 mg/kg", "result": "around 30 min"}, {"measurement": "Average concentration of TP70 in plasma", "setting": "[3]; oral gavage (po) route, 15 min", "result": "2.8 ± 0.09", "unit": "mg/L"}, {"measurement": "Average concentration of TP70 in plasma", "setting": "[3]; oral gavage (po) route, 30 min", "result": "3.9 ± 0.14", "unit": "mg/L"}, {"measurement": "Average concentration of TP70 in plasma", "setting": "[3]; oral gavage (po) route, 60 min", "result": "6.9 ± 0.17", "unit": "mg/L"}, {"measurement": "Average concentration of TP70 in plasma", "setting": "[3]; oral gavage (po) route, 120 min", "result": "4.2 ± 0.19", "unit": "mg/L"}, {"measurement": "Average concentration of TP70 in plasma", "setting": "[3]; oral gavage (po) route, 240 min", "result": "2.4 ± 1.37", "unit": "mg/L"}, {"measurement": "Average concentration of TP70 in plasma", "setting": "[3]; oral gavage (po) route, 360 min", "result": "1.2 ± 0.23", "unit": "mg/L"}, {"measurement": "bioavailability (F)", "setting": "[3]; po versus iv, 25 mg/kg", "result": 68, "unit": "%"}, {"measurement": "Area under the curve (AUC)", "setting": "[3]; po, 25 mg/kg", "result": 678}, {"measurement": "maximal plasma concentration", "setting": "[3]; po, 25 mg/kg", "result": "6.9 ± 0.17", "unit": "µg/mL"}, {"measurement": "maximal plasma concentration (equivalent)", "setting": "[3]; po, 25 mg/kg", "result": 17, "unit": "µM"}, {"measurement": "rotarod performance", "setting": "wildtype mice (C57BL/6)", "result": "insignificant effects"}, {"measurement": "druggable profile versus currently used drugs or reference compounds", "setting": "[4]", "result": "druggable profiles better or similar to several currently used drugs or reference compounds"}]}]}
